The compounds below were run against T1, human GLP-1 receptor (Homo sapiens, UniProt P43220) (assay: GLP-1R cAMP Assay (HitHunter cAMP accumulation)). Conditions: cAMP accumulation, CHO cells stably overexpressing human GLP-1 receptor, 30 min treatment; read-out: EC50.
T1 construct: expressed in transfected cells
Format: cell-based
Procedure, shortened: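 CHO cells stably expressing human GLP-1R, 10,000 cells/well in HBSS with 10 mM HEPES and 625 μM IBMX, were mixed with anti-cAMP antibody reagent. Compound was applied as a 20-point dose response in triplicate for 30 min. After lysis and overnight detection, luminescence was read and dose-response curves analysed.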

T1 sequence (P43220 24-463): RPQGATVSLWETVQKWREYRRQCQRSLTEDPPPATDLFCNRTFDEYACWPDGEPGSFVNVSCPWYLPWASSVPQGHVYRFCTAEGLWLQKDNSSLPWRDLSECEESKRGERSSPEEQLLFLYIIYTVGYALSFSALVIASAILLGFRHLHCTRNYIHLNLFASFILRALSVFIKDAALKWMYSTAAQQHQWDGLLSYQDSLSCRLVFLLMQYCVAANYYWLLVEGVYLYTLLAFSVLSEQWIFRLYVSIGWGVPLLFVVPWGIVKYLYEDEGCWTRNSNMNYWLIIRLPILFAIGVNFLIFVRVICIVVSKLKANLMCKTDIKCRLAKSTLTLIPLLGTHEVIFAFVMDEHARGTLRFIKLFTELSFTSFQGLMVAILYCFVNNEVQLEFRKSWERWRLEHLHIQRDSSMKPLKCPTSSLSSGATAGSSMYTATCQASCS

| SMILES | EC50 |
| --- | --- |
| CCn1cncc1Cn1c(CN2CC(=Cc3ccnc(COc4ccc(Cl)cc4Cl)c3)C2)nc2ccc(C(=O)O)cc21 [Compound 175, 2-{[3-({2-[(2,4-dichlorophenoxy)methyl]pyridin-4-yl}methylidene)azetidin-1-yl]methyl}-1-[(1-ethyl-1H-imidazol-5-yl)methyl]-1H-1,3-benzodiazole-6-carboxylic acid] | < 50 nM |
| N#Cc1ccc(OCc2nc(N3CC[C@H](Cc4nc5ccc(C(=O)O)cc5n4C[C@@H]4CCO4)C3)ccc2F)c(F)c1 [Compound 530] | < 50 nM |
| O=C(O)c1ccc2nc(CN3CC[C@H](c4cccc(COc5ccc(Cl)cc5Cl)c4)C3)n(C[C@@H]3CCO3)c2c1 (single isomer, unassigned) [Example 406] | < 50 nM |
| O=C(O)c1ccc2nc(CN3CC(Oc4cnc(COc5ccc(Cl)cc5Cl)o4)C3)n(C[C@@H]3CCO3)c2c1 [Example 213, (S)-2-((3-((2-((2,4-Dichlorophenoxy)methyl)oxazol-5-yl)oxy)azetidin-1-yl)methyl)-1-(oxetan-2-ylmethyl)-1H-benzo[d]imidazole-6-carboxylic acid] | < 50 nM |
| O=C(O)c1ccc2nc(CN3CC=C(c4ccnc(COc5ccc(Cl)cc5Cl)c4)C3)n(C[C@@H]3CCO3)c2c1 [Compound 402, 2-[(3-{2-[(2,4-dichlorophenoxy)methyl]pyridin-4-yl}-2,5-dihydro-1H-pyrrol-1-yl)methyl]-1-{[(2S)-oxetan-2-yl]methyl}-1H-1,3-benzodiazole-6-carboxylic acid] | < 50 nM |
| O=C(O)c1ccc2nc(CN3CC=C(c4nccc(COc5ccc(Cl)cc5F)n4)C3)n(C[C@@H]3CCO3)c2c1 [Example 435, (S)-2-((3-(4-((4-Chloro-2-fluorophenoxy)methyl)pyrimidin-2-yl)-2,5-dihydro-1H-pyrrol-1-yl)methyl)-1-(oxetan-2-ylmethyl)-1H-benzo[d]imidazole-6-carboxylic acid] | < 50 nM |
| O=C(O)c1ccc2nc(CN3CC(Oc4ccnc(COc5ccc(Cl)cc5Cl)c4)C3)n(Cc3cnco3)c2c1 [Example 219, 2-((3-((2-((2,4-Dichlorophenoxy)methyl)pyridin-4-yl)oxy)azetidin-1-yl)methyl)-1-(oxazol-5-ylmethyl)-1H-benzo[d]imidazole-6-carboxylic acid] | < 50 nM |
| N#Cc1ccc(OCc2ccc(F)c(C3CCN(Cc4nc5ccc(C(=O)O)cc5n4C[C@@H]4CCO4)C3)n2)c(F)c1 (stereo partly drawn) [Compound 520, 2-[(3-{6-[(4-cyano-2-fluorophenoxy)methyl]-3-fluoropyridin-2-yl}pyrrolidin-1-yl)methyl]-1-{[(2S)-oxetan-2-yl]methyl}-1H-1,3-benzodiazole-6-carboxylic acid] | < 50 nM |
| CCn1cncc1Cn1c(CN2CC(Oc3ccnc(COc4ccc(Cl)cc4Cl)c3)C2)nc2ccc(C(=O)O)cc21 [Compound 218, 2-{[3-({2-[(2,4-dichlorophenoxy)methyl]pyridin-4-yl}oxy)azetidin-1-yl]methyl}-1-[(1-ethyl-1H-imidazol-5-yl)methyl]-1H-1,3-benzodiazole-6-carboxylic acid] | < 50 nM |
| O=C(O)c1ccc2nc(CN3CC=C(c4cncc(COc5ccc(Cl)cc5F)n4)C3)n(C[C@@H]3CCO3)c2c1 [Example 396, (S)-2-((3-(6-((4-Chloro-2-fluorophenoxy)methyl)pyrazin-2-yl)-2,5-dihydro-1H-pyrrol-1-yl)methyl)-1-(oxetan-2-ylmethyl)-1H-benzo[d]imidazole-6-carboxylic acid] | < 50 nM |
| O=C(O)c1ccc2nc(CN3CCC(c4cccc(COc5ccc(Cl)cc5Cl)c4)C3)n(C[C@@H]3CCO3)c2c1 (stereo partly drawn) [Example 383, 2-((3-(3-((2,4-Dichlorophenoxy)methyl)phenyl)pyrrolidin-1-yl)methyl)-1-(((S)-oxetan-2-yl)methyl)-1H-benzo[d]imidazole-6-carboxylic acid] | < 50 nM |
| O=C(O)c1ccc2nc(CN3CC(=Cc4cccc(COc5ccc(Cl)cc5Cl)c4)C3)n(C[C@@H]3CCO3)c2c1 [Compound 195] | < 50 nM |
| CCn1cncc1Cn1c(Cc2ccc(Oc3cccc(COc4ccc(C#N)cc4F)n3)cc2F)nc2ccc(C(=O)O)cc21 [Compound 461, 2-{[4-({6-[(4-cyano-2-fluorophenoxy)methyl]pyridin-2-yl}oxy)-2-fluorophenyl]methyl}-1-[(1-ethyl-1H-imidazol-5-yl)methyl]-1H-1,3-benzodiazole-6-carboxylic acid] | < 50 nM |
| O=C(O)c1cc(F)c2nc(Cc3ccc(Oc4ccnc(COc5ccc(Cl)cc5F)c4)cc3F)n(C[C@@H]3CCO3)c2c1 [Example 459, (S)-2-(4-((2-((4-Chloro-2-fluorophenoxy)methyl)pyridin-4-yl)oxy)-2-fluorobenzyl)-4-fluoro-1-(oxetan-2-ylmethyl)-1H-benzo[d]imidazole-6-carboxylic acid] | < 50 nM |
| O=C(O)c1ccc2nc(CN3CC[C@@H](c4cccc(COc5ccc(Cl)cc5F)c4)C3)n(C[C@@H]3CCO3)c2c1 (single isomer, unassigned) [Example 411] | < 50 nM |
| O=C(O)c1ccc2nc(CN3CC(Oc4cccc(COc5ccc(Cl)cc5Cl)c4)C3)n(Cc3cnco3)c2c1 [Compound 238, 2-[(3-{3-[(2,4-dichlorophenoxy)methyl]phenoxy}azetidin-1-yl)methyl]-1-[(1,3-oxazol-5-yl)methyl]-1H-1,3-benzodiazole-6-carboxylic acid] | < 50 nM |
| N#Cc1ccc(OCc2nc(C34CC3CN(Cc3nc5ccc(C(=O)O)cc5n3C[C@@H]3CCO3)C4)ccc2F)c(F)c1 (mixture of isomers) [Example 522, 2-((1-(6-((4-Cyano-2-fluorophenoxy)methyl)-5-fluoropyridin-2-yl)-3-azabicyclo[3.1.0]hexan-3-yl)methyl)-1-(((S)-oxetan-2-yl)methyl)-1H-benzo[d]imidazole-6-carboxylic acid] | < 50 nM |
| CCn1cncc1Cn1c(CN2CC(Oc3cccc(COc4ccc(Cl)cc4Cl)c3)C2)nc2ccc(C(=O)O)cc21 [Compound 210, 2-[(3-{3-[(2,4-dichlorophenoxy)methyl]phenoxy}azetidin-1-yl)methyl]-1-[(1-ethyl-1H-imidazol-5-yl)methyl]-1H-1,3-benzodiazole-6-carboxylic acid] | < 50 nM |
| CCn1cncc1Cn1c(CN2CC3(CC(Oc4cccc(COc5ccc(Cl)cc5Cl)c4)C3)C2)nc2ccc(C(=O)O)cc21 [Compound 235, 2-[(6-{3-[(2,4-dichlorophenoxy)methyl]phenoxy}-2-azaspiro[3.3]heptan-2-yl)methyl]-1-[(1-ethyl-1H-imidazol-5-yl)methyl]-1H-1,3-benzodiazole-6-carboxylic acid] | 50 to 500 nM |
| N#Cc1ccc(OCc2cccc([C@@H]3CCN(Cc4nc5ccc(C(=O)O)cc5n4C[C@@H]4CCO4)C3)c2)c(F)c1 [Compound 414, 2-{[(3S)-3-{3-[(4-cyano-2-fluorophenoxy)methyl]phenyl}pyrrolidin-1-yl]methyl}-1-{[(2S)-oxetan-2-yl]methyl}-1H-1,3-benzodiazole-6-carboxylic acid] | < 50 nM |
| O=C(O)c1cc(F)c2nc(CN3CC[C@H](c4ccnc(COc5ccc(Cl)cc5F)c4)C3)n(C[C@@H]3CCO3)c2c1 (single isomer, unassigned) [Example 427] | < 50 nM |

— patent US20220396569A1 (Carmot Therapeutics, Inc., priority 2021, published 2022)
